Measured values from publication PMC10133194 (Chemistry (Weinheim an der Bergstrasse, Germany), 2023).
Where two headings read alike, the source gives them in different places.

How the values were obtained:
[1] = biological target: T1, EPHA2 kinase domain (D596-G900) (Homo sapiens, UniProt P29317); settings: read-out: KD MST, reported previously ref 18; cited from earlier work
T1 sequence (P29317 596-900): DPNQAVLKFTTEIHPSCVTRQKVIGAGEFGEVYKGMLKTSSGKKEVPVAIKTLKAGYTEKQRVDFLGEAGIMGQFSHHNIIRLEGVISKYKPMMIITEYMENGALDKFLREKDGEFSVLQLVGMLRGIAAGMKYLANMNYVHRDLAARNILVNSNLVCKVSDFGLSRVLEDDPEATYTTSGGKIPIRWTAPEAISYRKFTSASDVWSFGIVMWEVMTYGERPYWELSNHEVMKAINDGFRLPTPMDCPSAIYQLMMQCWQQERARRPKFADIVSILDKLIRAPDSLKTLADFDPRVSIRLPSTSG

[2] = system: human colon carcinoma cells; settings: panel of cell lines; cited from earlier work
human CRC = settings: cited from earlier work
[3] = biological target: T1, EPHA2 kinase domain (D596-G900); assay: Microscale thermophoresis; assay type: binding; settings: read-out: KD MST, 25 °C, 5% DMSO, duplicates

| Kd [3] | SMILES | Kd [1] | effect on proliferation of human colon carcinoma cells [2] | effect on growth of human CRC in mice (human CRC) |
| --- | --- | --- | --- | --- |
|  | Cc1ccc(C(=O)Nc2cccc(C(F)(F)F)c2)cc1Nc1nc(-c2cccnc2)nc2nn(C)cc12 [NVPiso] | 73 nM | reduce the proliferation | inhibited the growth of human CRC in mice |
|  | Cc1ccc(C(=O)Nc2cccc(C(F)(F)F)c2)cc1Nc1nc(-c2cccnc2)nc2c1cnn2C [NVP, NVP-BHG712] |  | reduce the proliferation |  |
| 2 nM | COc1cccc(NC(=O)c2ccc(C)c(Nc3nc(-c4cccnc4)nc4c3cnn4C)c2)c1 [Compound 14] |  |  |  |
| 10 nM | Cc1ccc(NC(=O)c2cccc(C(F)(F)F)c2)cc1Nc1nc(-c2cccnc2)nc2c1cnn2C [Compound 7] |  |  |  |
